Kd data for one compound are collected here from publication PMC2829272 (Biochemical pharmacology, 2008).

Usually Kd stands for a measure of binding affinity in units of concentration. Low values mean tighter binding, high ones weaker binding.

The experiment has as its target T1, CYP26A1 (Homo sapiens, UniProt O43174).
T1 sequence (O43174 1-497): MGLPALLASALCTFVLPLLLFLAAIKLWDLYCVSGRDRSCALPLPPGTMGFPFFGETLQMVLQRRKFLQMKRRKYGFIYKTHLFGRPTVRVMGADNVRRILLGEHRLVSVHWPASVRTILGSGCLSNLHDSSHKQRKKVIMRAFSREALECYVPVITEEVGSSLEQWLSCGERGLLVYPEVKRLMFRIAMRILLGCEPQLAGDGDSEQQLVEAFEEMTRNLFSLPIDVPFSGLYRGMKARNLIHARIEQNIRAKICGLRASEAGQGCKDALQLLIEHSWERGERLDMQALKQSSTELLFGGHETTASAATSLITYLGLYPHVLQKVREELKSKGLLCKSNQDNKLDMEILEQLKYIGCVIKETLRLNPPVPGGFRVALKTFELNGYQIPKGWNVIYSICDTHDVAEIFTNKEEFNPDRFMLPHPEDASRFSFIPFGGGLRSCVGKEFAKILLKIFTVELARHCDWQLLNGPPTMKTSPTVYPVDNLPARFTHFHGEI
Put plainly: spectral titration. The experiment is classed as binding.

The compound `CC1=C(/C=C/C(C)=C/C=C/C(C)=C/C(=O)O)C(C)(C)CCC1` [RA, all-trans-retinoic acid] came in with an equilibrium dissociation constant (Kd) of 529 nM.
